Reference: US20230240290A1, “USE OF (Z)-3-HEXENYL ESTERS AND METHOD FOR PROTECTING PLANTS AGAINST PESTS” (UNIVERSITAT POLITÈCNICA DE VALÈNCIA, priority 2020, published 2023)

Experiments:
[1] = tested on: SI-PI-II (marker for plant proteinase inhibitors); assay: Transcriptional response of SI-PI-II in tomato plants exposed to volatiles (laboratory); assay type: in vivo, Solanum lycopersicum cv. Moneymaker; details: intact tomato plants exposed 24 h; filter paper, 1:10,000 ester:methanol; n=8
Protocol: Moneymaker tomato plants were used. Two weeks after seed germination, the seedlings were individually transplanted into pots (8×8×8 cm). The plants were kept at 25±2° C., with a constant relative humidity of 65%±5% and a 14:10 h (light:dark) photoperiod. Tomato plants that had not received any pesticide treatment at four weeks of age (about 20 cm tall) were used. All volatiles used were obtained from Sigma-Aldrich (St. Louis, Mo., USA). Each volatile was exposed by using a 2×2 cm piece of filter paper on which 10 μl of a solution containing the corresponding volatile at a concentration of 1:10,000 [(Z)-3-hexenyl ester:methanol] was impregnated as an emitting source of the corresponding volatile (Pérez-Hedo, M. et al. Biocontrol, 63: 203-213 (2018)).
To activate a plant, two pieces of filter paper impregnated with the volatile were placed at the bottom of a 30×30×30 cm plastic cage (BugDorm-1 Insect Tents; MegaView Science Co., Ltd, Taichung, Taiwan) into which the plant was introduced. A control treatment was carried out in which the two pieces of filter paper were impregnated with 10 μl of methanol. Eight repetitions per treatment were performed. The plants of the treatments were kept exposed to the volatile without disturbing for 24 hours in separate and isolated climatic chambers to avoid any interference from the volatiles and were kept at 25±2° C., 65±10% RH, and a 14:10 h (L:D) photoperiod. […]
The methodology followed for extracting and quantifying gene expression was described by Pérez-Hedo et al. Journal of Pest Science 3: 543-554 (2015). The primers used were forward primer: 5′-[…]-3′ (SEQ ID NO: 1) and reverse primer: 5′-[…]-3′ (SEQ ID NO: 2) for the quantification of PR1, forward primer: 5′-[…]-3′ (SEQ ID NO: 3) and reverse primer: 5′-[…]-3′ (SEQ ID NO: 4) for SI-PI-I, and forward primer: 5′-[…]-3′ (SEQ ID NO: 5) and reverse primer: 5′-[…]-3′ (SEQ ID NO: 6) for the SI-PI-II gene. […]

[2] = tested on: PAL (salicylic acid pathway); assay: Transcriptional response of PAL in Carrizo citrange plants exposed to the volatile; assay type: in vivo; details: intact Carrizo citrange plants exposed 24 h; n=6
Protocol: Two weeks after seed germination, the seedlings were individually transplanted into pots (8×8×8 cm). The plants were kept in a greenhouse with a plastic cover at approximate climatic conditions of 25±5° C., a relative humidity of 65%±5%, and a natural light photoperiod, about 14:10 h (light:dark). Carrizo citrange plants that had not received any pesticide treatment at 8 weeks of age (approximately 20 cm tall) were used. The volatile (Z)-3-hexenyl propanoate was obtained from Sigma-Aldrich (St. Louis, Mo., USA). The volatile was exposed by using a 2×2 cm piece of filter paper on which 10 μl of a solution containing the corresponding volatile at a concentration of 1:10,000 [(Z)-3-hexenyl propanoate:methanol] was impregnated as an emitting source of the corresponding volatile (Pérez-Hedo, M. et al. Biocontrol, 63: 203-213 (2018)). […]
The methodology followed for the extraction and quantification of gene expression was described by Pérez-Hedo et al. Journal of Pest Science 3: 543-554 (2015). The primers used were forward primer: 5′-[…]-3′ (SEQ ID NO: 11) and reverse primer: 5′-[…]-3′ (SEQ ID NO: 12) for the quantification of LOX2, forward primer: 5′-[…]-3′ (SEQ ID NO: 13) and reverse primer: 5′-[…]-3′ (SEQ ID NO: 14) for PAL and forward primer: 5′-[…]-3′ (SEQ ID NO: 15) and reverse primer: 5′-[…]-3′ (SEQ ID NO: 16) for the NPR5 gene. […]

[3] = tested on: Diaphorina citri; assay: Citrus field assay with sentinel Murraya paniculata seedlings with and without dispenser; assay type: in vivo
Protocol: A Valencia orange field with a high presence of receptive shoots and a population of D. citri adults located in the experimental fields of SWFREC (University of Florida) was selected. […] Sentinel plants that were hung inside the tree canopy were used. The sentinel plants were seedlings of Murraya paniculata with shoots receptive to the laying of D. citri. 7 seedlings with a dispenser (polymeric dispenser that was loaded with 1.5 ml of (Z)-3-hexenyl propanoate) and 7 seedlings without a dispenser were used. Each seedling was distributed in the field following a random block design (using a row of trees as a block), and one seedling with a dispenser and another one without was placed in each block. The seedlings were located at a minimum distance of 50 meters from each other to avoid any edge effect.
After 4 days of placing the seedlings, these were collected from the field and taken to the laboratory, where the number of eggs per shoot in each of the seedlings was counted under a binocular loupe.

CC/C=C\CCOC(=O)CC [(Z)-3-hexenyl propanoate]
Transcriptional response of SI-PI-II compared to the control [1]: significantly overexpressed
Transcriptional response of PAL compared to control [2]: significantly overexpressed
Reduction of D. citri (laying, eggs per shoot) ([3]; Valencia orange field, Murraya paniculata sentinel seedlings, dispenser with 1.5 ml, 4 days): more than 70%
Laying of D. citri ([3]; citrus plant exposed to the volatile, summary statement): reduced by more than half
